Source: paper PMC4830873 (Analytical and Bioanalytical Chemistry, 2016)
“Also recorded” adds a separate entry of the source. Blank lines part the entries; values can stand above or below the compound they belong to. Where a SMILES comes first, the peptide text is derived from it. [ ]: non-standard residue; d: D form.

Assays:
[1] = Human administration study, detection in EDTA plasma after subcutaneous Geref (Sermorelin); format: in vivo; conditions: healthy volunteer, 500 μg Geref (Sermorelin) subcutaneous, n = 1
Protocol: (§1) Sample aliquots of 100 μL of plasma were spiked with 1 μL of ISTD [200 ng/mL] and diluted with 100 μL of PBS before extraction. The multichannel pipette was equipped with up to 12 protein A/G MSIA™-Tips and up to 2000 cycles (one cycle corresponding to one round of liquid aspiration and ejection) were used for distinct sample preparation steps as outlined in Table 2. First, tips were conditioned with PBS before binding 10 μg of the polyclonal GHRH primary antibody (5 μL [2 mg/mL] in 95 μL PBS) to the proteins A/G immobilized on the monolithic adsorbent surface. After washing with PBS to remove unbound antibody residues the target analytes were extracted from plasma by antibody-antigen complex formation prior to three consecutive washing steps with PBS and water (Table 2). The peptides of interest were eluted into LoBind tubes using 3 % of aqueous acetic acid and the eluate was immediately used for injection into the UHPLC-MS(/MS) system. In Fig. 1, a schematic illustration of the relevant principle steps of the MSIA™ purification is presented.
Complementary to the aforementioned rat elimination study, a single dose of 500 μg of Geref (Sermorelin) (Hallandale Pharmacy, FL, USA) was self-administered subcutaneously by a healthy volunteer (78 kg) following the provision of written consent. EDTA plasma samples were collected 30, 90, and 270 min after dosing and the specimens were stored at −20 °C until analysis.
Compared to rat plasma samples collected after the intravenous application of Sermorelin, the human in vivo study (using subcutaneous drug application) indicates a different but also rapid metabolism of the peptide hormone. While the intact drug was not detected in any of the collected plasma samples, the in vitro-derived Sermorelin metabolite GRF3-29 was detected in plasma 30 min post injection (Fig. 4).

[2] = Rat administration study, detection in plasma after intravenous administration; format: in vivo, Wistar; conditions: for In vivo biotransformation in rats (in words) / Anticipated metabolic products (N- or C-terminally truncated analogues) in rat plasma / Detection of intact GHRH in rat plasma 4 h post-administration / Detection of intact GHRH in rat plasma 8 h post-administration: 0.1 mg intravenous; for In vivo biotransformation in rats (in words): compared to CJC-1295; for Anticipated metabolic products (N- or C-terminally truncated analogues) in rat plasma: plasma 2, 4 and 8 h; for Detection of intact GHRH in rat plasma 4 h post-administration: plasma 4 h post dosing; for Detection of intact GHRH in rat plasma 4 h post-administration / Detection of intact GHRH in rat plasma 8 h post-administration: immunoaffinity purification and LC-HRMS/MS; for Detection of intact GHRH in rat plasma 8 h post-administration: plasma 8 h post dosing (latest collection time point)
Protocol: as §1
To probe for the in vivo metabolism of Sermorelin, CJC-1293, CJC-1295, and Tesamorelin, 0.1 mg of each GHRH was administered intravenously to three rats (Rattus norvegicus, Wistar, 200–300 g bodyweight at dosing). Urine samples were collected in a metabolic cage prior to and 6, 12, 24, and 30 h after administration but not subjected to analysis in this study. Blood was sampled at 2, 4, and 8 h after injection and specimens were centrifuged at 13,000×g for 20 min to produce serum or EDTA plasma, which was stored at −20 °C until analysis. The animal studies were conducted with approval of the respective ethical committee and the laboratory followed the directive 2010/63/EU of the European parliament and the council of 22 September 2010 on the protection of animals used for scientific purposes.
All intact GHRHs administered intravenously to rats were detected in plasma samples collected 2 h post dosing. In addition, Tesamorelin, CJC-1295, and CJC-1293 were also identified in specimens sampled 4 and 8 h post-administrating (Fig. 3), with the 8-h sample representing the latest collection time point of the study. Here it appears noteworthy that only qualitative results were obtained and that no pharmacokinetic interpretation was conducted. While all analytes were unequivocally identified and differentiated by mass spectrometry, chromatographic separation was accomplished for all target peptides with the exemption of the closely related compounds Sermorelin and CJC-1293 under the chosen analytical conditions.

[3] = In vitro incubation in fresh human plasma (metabolic fate / degradation); format: in vitro ADME; conditions: fresh human plasma diluted 1:1 with PBS, qualitative; for Degradation products (metabolites) detected after incubation in human plasma: spiked to 10 μg/mL, 30, 60, 120 and 240 min at 37 °C, LC-HRMS full scan before vs after incubation
Protocol: For the investigation of the metabolic fate of GHRHs, in vitro experiments using fresh human plasma samples were conducted, allowing to test for potential degradation products of the studied substances. In accordance to earlier reported methods, aliquots of human plasma samples were diluted (1:1) with PBS [22] and spiked to 10 μg/mL with Sermorelin or Tesamorelin, respectively. After incubation for 30, 60, 120, and 240 min at 37 °C, samples were prepared and analyzed as described elsewhere. Simulating degradation processes of exopeptidases, potential metabolites were considered by eliminating up to three amino acids from both N- and C-terminus. All samples were probed for the anticipated metabolic products as well as for the corresponding intact drugs.
Identifying potential metabolites of Sermorelin and Tesamorelin was accomplished by subtracting and comparing mass spectrometric full scan data of samples prepared before and after incubation of the substrates in fresh human plasma.

[4] = test system: dipeptidyl peptidase-IV (DPP-IV); assay: in vitro; conditions: cited from earlier work
[5] = EDTA plasma samples after subcutaneous self-administration of Geref (Sermorelin); conditions: human, up to 270 min
[6] = fresh human plasma samples diluted (1:1) with PBS; conditions: 37 °C, up to 240 min
[7] = rat serum or EDTA plasma after intravenous administration; conditions: rats (Rattus norvegicus, Wistar), up to 8 h

In vivo biotransformation in rats (in words) [2]: readily biotransformed
Detection of intact GHRH in rat plasma 4 h post-administration ([2]; qualitative): identified
Detection of intact GHRH in rat plasma 8 h post-administration ([2]; qualitative): identified
Compound: CC[C@H](C)[C@H](NC(=O)[C@H](C)NC(=O)[C@H](CC(=O)O)NC(=O)[C@@H](C)NC(=O)[C@@H](N)Cc1ccc(O)cc1)C(=O)N[C@@H](Cc1ccccc1)C(=O)N[C@H](C(=O)N[C@@H](CC(N)=O)C(=O)N[C@@H](CO)C(=O)N[C@@H](Cc1ccc(O)cc1)C(=O)N[C@@H](CCCNC(=N)N)C(=O)N[C@@H](CCCCN)C(=O)N[C@H](C(=O)N[C@@H](CC(C)C)C(=O)NCC(=O)N[C@@H](CCC(N)=O)C(=O)N[C@@H](CC(C)C)C(=O)N[C@@H](CO)C(=O)N[C@@H](C)C(=O)N[C@@H](CCCNC(=N)N)C(=O)N[C@@H](CCCCN)C(=O)N[C@@H](CC(C)C)C(=O)N[C@@H](CC(C)C)C(=O)N[C@@H](CCC(N)=O)C(=O)N[C@@H](CC(=O)O)C(=O)N[C@H](C(=O)N[C@@H](CCSC)C(=O)N[C@@H](CO)C(=O)N[C@@H](CCCNC(=N)N)C(N)=O)[C@@H](C)CC)C(C)C)[C@@H](C)O [CJC-1293, (D-Ala^2)-GRF amide]
Anticipated metabolic products (N- or C-terminally truncated analogues) in rat plasma ([2]; qualitative): none of the anticipated metabolic products; also recorded: no analogous metabolites

Anticipated metabolic products (N- or C-terminally truncated analogues) in rat plasma ([2]; qualitative): no analogous metabolites
Detection of intact GHRH in rat plasma 4 h post-administration ([2]; qualitative): identified
Detection of intact GHRH in rat plasma 8 h post-administration ([2]; qualitative): identified
Compound: CC[C@H](C)[C@H](NC(=O)[C@H](C)NC(=O)[C@H](CC(=O)O)NC(=O)[C@@H](C)NC(=O)[C@@H](N)Cc1ccc(O)cc1)C(=O)N[C@@H](Cc1ccccc1)C(=O)N[C@H](C(=O)N[C@@H](CCC(N)=O)C(=O)N[C@@H](CO)C(=O)N[C@@H](Cc1ccc(O)cc1)C(=O)N[C@@H](CCCNC(=N)N)C(=O)N[C@@H](CCCCN)C(=O)N[C@H](C(=O)N[C@@H](CC(C)C)C(=O)N[C@@H](C)C(=O)N[C@@H](CCC(N)=O)C(=O)N[C@@H](CC(C)C)C(=O)N[C@@H](CO)C(=O)N[C@@H](C)C(=O)N[C@@H](CCCNC(=N)N)C(=O)N[C@@H](CCCCN)C(=O)N[C@@H](CC(C)C)C(=O)N[C@@H](CC(C)C)C(=O)N[C@@H](CCC(N)=O)C(=O)N[C@@H](CC(=O)O)C(=O)N[C@H](C(=O)N[C@@H](CC(C)C)C(=O)N[C@@H](CO)C(=O)N[C@@H](CCCNC(=N)N)C(N)=O)[C@@H](C)CC)C(C)C)[C@@H](C)O [CJC-1295, (D-Ala^2, Gln^8, Ala^15, Leu^27)-GRF amide] (H-Y[dA]DAIFTQSYRKVLAQLSARKLLQDILSR-NH2)

More lines, now with the values behind:

Compound: CC[C@H](C)[C@H](NC(=O)[C@H](C)NC(=O)[C@H](CC(=O)O)NC(=O)[C@H](C)NC(=O)[C@@H](N)Cc1ccc(O)cc1)C(=O)N[C@@H](Cc1ccccc1)C(=O)N[C@H](C(=O)N[C@@H](CC(N)=O)C(=O)N[C@@H](CO)C(=O)N[C@@H](Cc1ccc(O)cc1)C(=O)N[C@@H](CCCNC(=N)N)C(=O)N[C@@H](CCCCN)C(=O)N[C@H](C(=O)N[C@@H](CC(C)C)C(=O)NCC(=O)N[C@@H](CCC(N)=O)C(=O)N[C@@H](CC(C)C)C(=O)N[C@@H](CO)C(=O)N[C@@H](C)C(=O)N[C@@H](CCCNC(=N)N)C(=O)N[C@@H](CCCCN)C(=O)N[C@@H](CC(C)C)C(=O)N[C@@H](CC(C)C)C(=O)N[C@@H](CCC(N)=O)C(=O)N[C@@H](CC(=O)O)C(=O)N[C@H](C(=O)N[C@@H](CCSC)C(=O)N[C@@H](CO)C(=O)N[C@@H](CCCNC(=N)N)C(N)=O)[C@@H](C)CC)C(C)C)[C@@H](C)O [Sermorelin, GHRH1-29]
Detection of intact drug in human plasma after subcutaneous application ([1]; EDTA plasma 30, 90 and 270 min after dosing): not detected
Detection window of intact substance in plasma ([2]; 0.1 mg intravenous single dose, sampling at 2, 4 and 8 h, qualitative): ≤ 2 h
In vivo biotransformation in rats (in words) [2]: readily biotransformed
Anticipated metabolic products (N- or C-terminally truncated analogues) in rat plasma ([2]; qualitative): none of the anticipated metabolic products
Degradation products (metabolites) detected after incubation in human plasma [3]: the earlier reported metabolite (GRF3-29) [7] was observed
Intact drug remaining after incubation in human plasma ([3]; spiked to 10 μg/mL, 37 °C, after a period of 4 h (240 min), LC-HRMS full scan): entirely degraded

Compound: DAIFTNSYRKVLGQLSARKLLQDIMSR-NH2 [Sermorelin metabolite, GRF3-29, metabolite of Sermorelin originating from the loss of the N-terminal Tyr-Ala-residue]
Detection of metabolite in human plasma 30 min post injection ([1]; EDTA plasma 30 min): detected
Detection of metabolite in human plasma 90 min post injection ([1]; EDTA plasma 90 min): negative

Compound: YADAIFTNSYRKVLGQLSARKLLQDIMSR-NH2
cleaved bond [4]: Ala2-D3
cleaved bond [5]: Ala2-D3, 30 min
cleaved bond [6]: Ala2-D3

Compound: CC/C=C/CC(=O)N[C@@H](Cc1ccc(O)cc1)C(=O)N[C@@H](C)C(=O)N[C@@H](CC(=O)O)C(=O)N[C@@H](C)C(=O)N[C@H](C(=O)N[C@@H](Cc1ccccc1)C(=O)N[C@H](C(=O)N[C@@H](CC(N)=O)C(=O)N[C@@H](CO)C(=O)N[C@@H](Cc1ccc(O)cc1)C(=O)N[C@@H](CCCNC(=N)N)C(=O)N[C@@H](CCCCN)C(=O)N[C@H](C(=O)N[C@@H](CC(C)C)C(=O)NCC(=O)N[C@@H](CCC(N)=O)C(=O)N[C@@H](CC(C)C)C(=O)N[C@@H](CO)C(=O)N[C@@H](C)C(=O)N[C@@H](CCCNC(=N)N)C(=O)N[C@@H](CCCCN)C(=O)N[C@@H](CC(C)C)C(=O)N[C@@H](CC(C)C)C(=O)N[C@@H](CCC(N)=O)C(=O)N[C@@H](CC(=O)O)C(=O)N[C@H](C(=O)N[C@@H](CCSC)C(=O)N[C@@H](CO)C(=O)N[C@@H](CCCNC(=N)N)C(=O)N[C@@H](CCC(N)=O)C(=O)N[C@@H](CCC(N)=O)C(=O)NCC(=O)N[C@@H](CCC(=O)O)C(=O)N[C@@H](CO)C(=O)N[C@@H](CC(N)=O)C(=O)N[C@@H](CCC(N)=O)C(=O)N[C@@H](CCC(=O)O)C(=O)N[C@@H](CCCNC(=N)N)C(=O)NCC(=O)N[C@@H](C)C(=O)N[C@@H](CCCNC(=N)N)C(=O)N[C@@H](C)C(=O)N[C@@H](CCCNC(=N)N)C(=O)N[C@@H](CC(C)C)C(N)=O)[C@@H](C)CC)C(C)C)[C@@H](C)O)[C@@H](C)CC [Tesamorelin]
Detection of intact GHRH in rat plasma 4 h post-administration ([2]; qualitative): identified
Detection of intact GHRH in rat plasma 8 h post-administration ([2]; qualitative): identified
Degradation products (metabolites) detected after incubation in human plasma [3]: no degradation products of considerable abundance were detected

Compound: hexenoyl-YADAIFTNSYRKVLGQLSARKLLQDIMSRQQGESNQERGARARL-NH2
not cleaved [6]: no degradation products of considerable abundance were detected
not cleaved [7]: identified at all sampling points (i.e., up to 8 h post-administration)
